Reference: patent US10793520B2, “Sulfonylaminobenzamide compound and pest control agent” (Nippon Soda Co., Ltd., priority 2016, dated 2020)

System: Mythimna separata
Experiment: Efficacy test against Mythimna separata (treated artificial feed)
Settings: in vivo
Procedure: Five parts of the compound of the present invention, 93.6 parts of dimethylformamide and 1.4 parts of a polyoxyethylene alkyl aryl ether were mixed together and dissolved to obtain an emulsion (1) containing 5% of the active constituent.
The mortality rate was calculated using the following equation. Mortality rate (%)=(number of dead pests/number of test pests)×100
First, 0.8 g of an artificial feed (Insecta LFS, manufactured by Nosan Corporation) and 1 μl of the emulsion (I) were mixed thoroughly, and 0.2 g of the resulting mixture was placed in each of the treatment areas of a plastic test container (volume: 1.4 ml) to complete preparation of a test feed.
Two second-instar larvae of Mythimna separata were inoculated into each treatment area, and the test container was sealed with a plastic lid. The sealed container was placed in a temperature-controlled room at 25° C., and the mortality rate and the amount of feed consumed were determined on the fifth day. The test was repeated. Further, a test performed under the same conditions, but with the exception of excluding the compound of the present invention from the emulsion (1), was used as a control.

SMILES | mortality rate against Mythimna separata, or amount of feed consumed relative to control
CC(C)C(NC(=O)c1ccc(C(F)(F)F)cc1NS(=O)(=O)C(F)(F)F)c1ccc(Cl)cc1 (racemic) [b-3] | 100%, or the amount of feed consumed was 10% or less
O=C(Nc1cc(C(F)(F)F)cc(C(F)(F)F)c1)c1ccc(Cl)cc1NS(=O)(=O)C(F)(F)F [a-1] | 100%, or the amount of feed consumed was 10% or less
O=C(Nc1ccc(F)c(C(F)(F)F)c1)c1ccc(C(F)(F)F)cc1NS(=O)(=O)C(F)(F)F [a-2] | 100%, or the amount of feed consumed was 10% or less
O=C(Nc1cc(C(F)(F)F)cc(C(F)(F)F)c1)c1ccc(C(F)(F)F)cc1NS(=O)(=O)C(F)(F)F [a-3] | 100%, or the amount of feed consumed was 10% or less
O=C(Nc1ccc(C(F)(F)F)cc1)c1ccc(C(F)(F)F)cc1NS(=O)(=O)C(F)(F)F [a-4] | 100%, or the amount of feed consumed was 10% or less
O=C(Nc1ccc(C(F)(F)F)cc1Cl)c1ccc(C(F)(F)F)cc1NS(=O)(=O)C(F)(F)F [a-7] | 100%, or the amount of feed consumed was 10% or less
O=C(Nc1ccc(C(F)(F)F)cn1)c1ccc(C(F)(F)F)cc1NS(=O)(=O)C(F)(F)F [a-8] | 100%, or the amount of feed consumed was 10% or less
O=C(Nc1ccc(C(F)(F)F)c(Cl)c1)c1ccc(C(F)(F)F)cc1NS(=O)(=O)C(F)(F)F [a-10] | 100%, or the amount of feed consumed was 10% or less
O=C(Nc1cc(C(F)(F)F)ccc1F)c1ccc(C(F)(F)F)cc1NS(=O)(=O)C(F)(F)F [a-11] | 100%, or the amount of feed consumed was 10% or less
O=C(Nc1cccc(OC(F)(F)F)c1)c1ccc(C(F)(F)F)cc1NS(=O)(=O)C(F)(F)F [a-12] | 100%, or the amount of feed consumed was 10% or less
Cc1ccc(NC(=O)c2ccc(C(F)(F)F)cc2NS(=O)(=O)C(F)(F)F)cc1 [a-13] | 100%, or the amount of feed consumed was 10% or less
O=C(Nc1ccc(Cl)cc1)c1ccc(C(F)(F)F)cc1NS(=O)(=O)C(F)(F)F [a-14] | 100%, or the amount of feed consumed was 10% or less
O=C(Nc1ccc(OC(F)(F)F)cc1)c1ccc(C(F)(F)F)cc1NS(=O)(=O)C(F)(F)F [a-15] | 100%, or the amount of feed consumed was 10% or less
O=C(Nc1ccc(F)c(C(F)(F)F)c1)c1cc(F)c(F)cc1NS(=O)(=O)C(F)(F)F [a-16] | 100%, or the amount of feed consumed was 10% or less
O=C(Nc1c(Cl)cc(C(F)(F)F)cc1Cl)c1ccc(C(F)(F)F)cc1NS(=O)(=O)C(F)(F)F [a-18] | 100%, or the amount of feed consumed was 10% or less
O=C(Nc1ncc(C(C(F)(F)F)C(F)(F)F)s1)c1ccc(C(F)(F)F)cc1NS(=O)(=O)C(F)(F)F [a-19] | 100%, or the amount of feed consumed was 10% or less
Cc1cc(C(F)(C(F)(F)F)C(F)(F)F)ccc1NC(=O)c1ccc(C(F)(F)F)cc1NS(=O)(=O)C(F)(F)F [a-20] | 100%, or the amount of feed consumed was 10% or less
CN(c1cc(C(F)(F)F)ccc1C(=O)Nc1ccc(F)c(C(F)(F)F)c1)S(=O)(=O)C(F)(F)F [a-21] | 100%, or the amount of feed consumed was 10% or less

SMILES | mortality rate against Mythimna separata, or amount of feed consumed relative to control
O=C(Nc1ccc(Cl)c(Cl)c1)c1ccc(C(F)(F)F)cc1NS(=O)(=O)C(F)(F)F [a-22] | 100%, or the amount of feed consumed was 10% or less
O=C(Nc1ncc(C(F)(F)F)cc1Cl)c1ccc(C(F)(F)F)cc1NS(=O)(=O)C(F)(F)F [a-23] | 100%, or the amount of feed consumed was 10% or less
O=C(Nc1ccc(OC(F)(F)F)cc1)c1ccc(OC(F)(F)F)cc1NS(=O)(=O)C(F)(F)F [a-24] | 100%, or the amount of feed consumed was 10% or less
O=C(Nc1ccc(S(F)(F)(F)(F)F)cc1)c1ccc(C(F)(F)F)cc1NS(=O)(=O)C(F)(F)F [a-28] | 100%, or the amount of feed consumed was 10% or less
O=C(Nc1ccc(OC(F)(F)F)cc1)c1ccc(Br)cc1NS(=O)(=O)C(F)(F)F [a-29] | 100%, or the amount of feed consumed was 10% or less
O=C(Nc1ccc(OC(F)(F)F)cc1)c1ccc(C(F)(F)F)cc1NS(=O)(=O)CC(F)(F)F [a-30] | 100%, or the amount of feed consumed was 10% or less
O=C(Nc1ccc(OC(F)(F)F)cc1)c1ccc(-n2cncn2)cc1NS(=O)(=O)C(F)(F)F [a-31] | 100%, or the amount of feed consumed was 10% or less
O=C(Nc1ccc(OC(F)(F)F)cc1)c1ccc(-c2ccc(Cl)nc2)cc1NS(=O)(=O)C(F)(F)F [a-32] | 100%, or the amount of feed consumed was 10% or less
O=C(Nc1ccc(OC(F)(F)F)cc1)c1ccc(C(F)(F)F)cc1NS(=O)(=O)C(F)F [a-33] | 100%, or the amount of feed consumed was 10% or less
O=C(Nc1ccc(OC(F)(F)F)cc1)c1ccc(-c2ccc(C(F)(F)F)nc2)cc1NS(=O)(=O)C(F)(F)F [a-34] | 100%, or the amount of feed consumed was 10% or less
O=C(Nc1ccc(OC(F)(F)F)cc1)c1ccc(-c2ccc(C(F)(F)F)cc2)cc1NS(=O)(=O)C(F)(F)F [a-35] | 100%, or the amount of feed consumed was 10% or less
N#Cc1ccc(C(=O)Nc2ccc(C(F)(F)F)cc2)c(NS(=O)(=O)C(F)(F)F)c1 [a-36] | 100%, or the amount of feed consumed was 10% or less
N#Cc1ccc(NC(=O)c2ccc(C(F)(F)F)cc2NS(=O)(=O)C(F)(F)F)cc1C(F)(F)F [a-37] | 100%, or the amount of feed consumed was 10% or less
N#Cc1ccc(C(=O)Nc2ccc(C(F)(F)F)cc2)c(NS(=O)(=O)CC(F)(F)F)c1 [a-38] | 100%, or the amount of feed consumed was 10% or less
N#Cc1ccc(NC(=O)c2ccc(C(F)(F)F)cc2NS(=O)(=O)C(F)(F)F)cc1 [a-39] | 100%, or the amount of feed consumed was 10% or less
N#Cc1ccc(NC(=O)c2ccc(C#N)cc2NS(=O)(=O)C(F)(F)F)cc1 [a-40] | 100%, or the amount of feed consumed was 10% or less
O=C(Nc1ccc(F)c(C(F)(F)F)c1)c1ccc(Cl)cc1NS(=O)(=O)C(F)(F)F [a-41] | 100%, or the amount of feed consumed was 10% or less
O=C(Nc1ccc(OC(F)(F)F)cc1)c1ccc(-c2ccc(C(F)(F)F)cc2Cl)cc1NS(=O)(=O)C(F)(F)F [a-42] | 100%, or the amount of feed consumed was 10% or less
